This is an account of results in patent US8642510B2, “Inhibitors for brassinosteroid signalling” (GMI-Gregor Mendel-Institut fuer Molekulare Pflanzenbiologie …, priority 2008, dated 2014).

“Also recorded” adds a separate entry of the source.

Data set [1] is described as follows: Determination of pKa values. As to conditions: pH5.8, the pH of the medium.
Method: Fifty to 100 mg compound were weighed and dissolved in 50 ml 50% (v/v) methanol. A titration curve with 50 mM NaOH as standard solution was recorded with a Greisinger electonics GPHR 1400A pH meter. The equivalence point was determined by the difference quotient method (ΔpH/ΔVNaOH) and the pKa read from the titration curve at 50% neutralisation.
For a further data set, the system named is bri1-1 mutant seedlings. As to the kind of experiment: Physiological test, phenotype rescue of brassinosteroid signalling mutant bri1-1. The conditions noted are these: 30 μM in medium, 7 days. Type of data set: in vivo, Arabidopsis thaliana. Here is the method: (§1) FIG. 3: Effects on the phenotype of brassinosteroid mutants. 7-day-old seedlings of the brassinosteroid synthesis mutant cpd and signalling mutant bri1-1 were transferred to MS medium containing 1 μM epi-brassinolide (Epi-BL) or compounds 10 and 15 at a concentration of 30 μM and incubated for 7 days under long day conditions. All pictures were taken at the same magnification. The bar represents 1 mm.
(§2) Arabidopsis thaliana Co10 or bri1-1 seedlings were grown in vitro on ½ MS plates containing 1% sucrose in a growth camber under long day conditions (16 h light with 50 μE·m^−2·s^−1, 8 h dark) for 7 days. Subsequently, they were transferred to plates supplemented with inhibitors at different concentrations and effects on the phenotype were observed 7 days later.
(§3) Downregulation of ASK activity is crucial in brassinosteroid signalling. ASKs are constitutively active in cpd and bril-1 mutants, which are defective in brassinosteroid biosynthesis or signalling, respectively. This leads to severely dwarfed plants with dark green downward curled leaves and shortened hypocotyls. […] To screen for in vivo potency, cpd and bril-1 mutants were transferred to media containing 4-[(5-bromo-2-pyridinyl)amino]-4-oxobutanoic acid derivatives at a concentration of 30 μM. […] The potency to rescue the phenotype correlated with the results of the in vitro assay.

The next data set deals with T1, ASKζ (Arabidopsis thaliana, UniProt Q39010).
T1 construct: expressed in transfected cells; host or cells: A. thaliana protoplasts
T1 sequence (Q39010 1-412): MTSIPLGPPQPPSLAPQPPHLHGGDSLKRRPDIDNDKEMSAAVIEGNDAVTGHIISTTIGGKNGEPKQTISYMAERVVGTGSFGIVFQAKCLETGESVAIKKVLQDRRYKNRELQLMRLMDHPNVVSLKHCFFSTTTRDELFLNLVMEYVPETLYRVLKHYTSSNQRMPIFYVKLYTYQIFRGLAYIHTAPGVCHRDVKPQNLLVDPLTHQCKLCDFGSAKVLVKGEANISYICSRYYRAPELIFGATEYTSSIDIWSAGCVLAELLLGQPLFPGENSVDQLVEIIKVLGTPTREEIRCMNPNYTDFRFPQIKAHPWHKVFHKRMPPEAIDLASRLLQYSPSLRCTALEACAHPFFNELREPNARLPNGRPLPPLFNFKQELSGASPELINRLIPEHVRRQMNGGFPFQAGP
As to the kind of experiment: In vivo kinase assay, BZR1-CFP phosphorylation band-shift in protoplasts. The conditions noted are these: protoplasts co-transformed with BZR1-CFP and Myc-tagged ASK; increasing concentrations. Type of data set: cell-based, A. thaliana. The text has this: A. thaliana protoplasts were co-transformed with expression constructs of BZR1-CFP and Myc-tagged ASKζ and treated with increasing concentrations of compounds 10 and 15. […] and ASKζ-Myc were detected by western blot analysis using polyclonal anti-GFP and monoclonal anti-Myc antibodies, respectively. A Coomassie R250 stain is shown as a loading control. Depending on the ASKζ kinase activity BZR1-CFP can be observed in a phosphorylated or unphosphorylated form (indicated by arrows). The ratio of the two ASKζ-Myc bands, indicating posttranslational modification of this protein, were not affected by inhibitor application.
ASKs were expressed as GST-fusion proteins in E. coli BL21. […] The reaction products were separated by SDS-PAGE and the amount of radioactivity incorporated into MBP quantified using an Amersham storage phosphor imager screen and a Biorad Molecular Imager FX. In vivo kinase activity was detected by phosphorylation band-shift assays using BZR1-CFP as substrate.
Because of this unexpected result, the effect of the inhibitions on the in vivo ASK activity was analysed by a direct method. […] Transformed protoplasts were incubated with different concentrations of compounds 10 and 15 and BZR1-CFP and […] and subsequently analysed by western blotting.

The test system of a further data set is cpd mutant seedlings. As to the kind of experiment: Physiological test, phenotype rescue of brassinosteroid synthesis mutant cpd. The data set is classed as in vivo, Arabidopsis thaliana. The conditions noted are these: 30 μM in medium, 7 days. Here is the method: as §1, §2, §3
Data set [2] relates to ASKs (A. thaliana GSK-3/Shaggy-like kinases). As to the kind of experiment: In vitro kinase assay, GST-ASK fusion proteins with MBP and γ-[32P]-ATP. Type of data set: biochemical, Arabidopsis thaliana. As to conditions: compounds at 10 μM; result in words. How it is done:
GST-ASK fusion proteins were incubated with MBP as substrate and γ-[32P]-ATP as co-substrate in the absence (−) or presence of different derivatives (the numbers correspond to Table 1). […] The compounds were used at a concentration of 10 μM. The proteins were separated by SDS-PAGE and the incorporated radioactive phosphate detected with a storage phosphor imager screen.
ASKs were expressed as GST-fusion proteins in E. coli BL21. In vitro kinase assays were performed by incubating 50 ng GST-fusion protein, 10 μg myelin basic protein (MBP; Sigma, St Louis, Mo.) as substrate and 0.15 MBq γ-[32P]-ATP as co-substrate at 25° C. for 30 min. The reaction buffer consisted of 20 mM HEPES pH7.4, 15 mM MgCl2, 5 mM EGTA and 1 mM DTT. For initial experiments cold ATP was included at concentrations up to 3 μM. The reaction products were separated by SDS-PAGE and the amount of radioactivity incorporated into MBP quantified using an Amersham storage phosphor imager screen and a Biorad Molecular Imager FX. In vivo kinase activity was detected by phosphorylation band-shift assays using BZR1-CFP as substrate.
Representatives of all groups were expressed as recombinant GST fusion proteins in E. coli.

A short description of data set [3]: HPLC-analysis of plant extracts (fate of compound in planta). As to conditions: seedlings infiltrated, HPLC of extracts after 15 min. The data set is classed as in vivo, A. thaliana. Here is the method: FIG. 5: Estrified compounds are rapidly hydrolysed in planta. A. thaliana seedlings were infiltrated with ½MS medium containing 50 μM compound 10. Control samples were taken before infiltration (A) and analysed by HPLC. A biotransformation product (marked P) of compound 10 could be observed after 15 min (B). A chromatogram of a mixture of compounds 10, 15, and 17 (labelled with C10, C15 and C17, respectively) is shown for comparison (C). The small boxes inserted into the chromatograms show the UV spectra of the peaks in the range of 220 to 360 nm. mAU, milli absorption units recorded at 250 nm.
Two-week-old A. thaliana Co10 seedlings were vacuum infiltrated with ½MS or ½MS containing […] compound 10 as described previously (Rozhon et al., 2005). After 15 min and after 48 h samples were taken, rinsed with water and ground in liquid nitrogen to a fine powder. 100 mg powder were weighed into a reaction tube and 1 ml extraction buffer (20 mM TRIS/HCl pH6.8 dissolved in 20% acetonitrile) was added. […] The extracts were analysed by HPLC with the same settings as mentioned above.
To investigate these conflicting results, the fate of compound 10 in vivo was investigated. Seedlings were infiltrated with compound 10 and plant extracts subsequently analysed by HPLC. […]

On to `COC(=O)CCC(=O)Nc1ccc(I)cn1` [Compound 10, 4-[(5-iodopyrid-2-yl)amino]-4-oxobutanoic acid methyl ester], for which the “Portion undissociated / lipophilic, capable of diffusion through the membrane” value in data set [1] is 100%. For the same compound, the “Rescue of bri1-1 mutant phenotype” value in the data set on bri1-1 mutant seedlings is recorded as “highly active in vivo”. In addition, the “Inhibition of in vivo ASK activity (BZR1-CFP phosphorylation shift)” value on ASKζ is reported as “potent inhibitors in vivo; also recorded: highly active”. Moreover, the “Rescue of cpd mutant phenotype” value in the data set on cpd mutant seedlings was “highly active in vivo”. The “Inhibition of ASKs in vitro (MBP phosphorylation)” value in data set [2] is given as “dramatically reduced inhibitory effects; also recorded: little potency in vitro; also recorded: little or no activity”. In data set [3], the “Stability in planta (hydrolysis of methyl ester to free acid)” value was “not stable in vivo but rapidly converted; also recorded: rapidly cleaved off”.
